# Experimental data taken from PMC12382614, “(Oxidopyridyl)Porphyrins of Different Lipophilicity: Photophysical Properties, ROS Production and Phototoxicity on Melanoma Cells Under CoCl2-Induced Hypoxia” (Antioxidants, 2025).
# Where “and” joins values, the source holds several entries; their conditions need not be identical. Equal values may be shown once. Read-outs that look alike come from different tables or passages of the source.
# Columns and labels:
# [1] = N-methylated analogue; cited from earlier work
# [2] = cited from earlier work; for ΦISC: N-methyl porphyrin analogues; for τT (lifetime of 3PS*): N-methylated counterparts
# A375 = experiment: Photocytotoxicity, MTT assay; assay type: cell-based, human; conditions: for IC50: Homo sapiens, A-375, light or radiation study
# Procedure: (§1) For (photo)cytotoxicity assays, stock solutions of porphyrins were prepared in DMSO and dissolved in DMEM to the final concentrations. The porphyrin incubation time was 6h. Irradiation of the cells was with red light (λ = 643 nm) for 30 min (light dose, 3.6 J/cm^2). Nonirradiated cells were used to test the dark toxicity. All measurements were performed in three individual experiments, and the results are shown as the proliferation (%) of the cells and were calculated as IC50 values.
# (§2) The cytotoxicity of (oxidopyridyl)porphyrins was assessed by an MTT assay on the HDF, MeWo and A375 cell lines after 6 h of incubation with porphyrins, without irradiation, or after 30 min of irradiation with red light (λ = 643 nm), and under conditions of normoxia or hypoxia. To induce hypoxia, 100 µM of CoCl2 was added at least two hours before the porphyrins. […] Oxygen is also one of the substrates for the activity of prolyl hydroxylases; therefore, in both cases, the result is the blockage of hydroxylation of HIF-1α and, consequently, its increase and stabilisation, which, in the case of CoCl2-induced hypoxia, can be maintained for several hours.
# MeWo = experiment: Photocytotoxicity, MTT assay; assay type: cell-based, human; conditions: for IC50: Homo sapiens, MeWo, light or radiation study
# Procedure: as §1, §2
# HDF = experiment: Photocytotoxicity, MTT assay; assay type: cell-based, human; conditions: Homo sapiens, HDF, light or radiation study
# Procedure: as §1, §2
# [3] = tested on: HDF, MeWo and A375 cell lines; experiment: (Photo)cytotoxicity MTT assay, statements made for all cell lines; assay type: cell-based, human
# Procedure: as §1, §2
# [4] = Fluorescence decay by time-correlated single-photon counting (TC-SPC); assay type: physicochemical; conditions: MeOH, N2, λex 405 nm
# Procedure: Time-correlated single-photon counting (TC-SPC) was used to obtain information about fluorescence decays. All measurements were performed on an FS5 Edinburgh Instruments device with a pulsed laser at 405 nm wavelength, which was used for the excitation process (pulse duration 60 ps). Fluorescence signals were monitored at 660 nm over 1023 channels, with a time increment of ≈49 ps/channel. Porphyrins were dissolved in MeOH (HPLC grade), with the absorbance adjusted to 0.1 a.u. at the excitation wavelength, and the solution was degassed with N2 for 15 min before the measurements were taken. All the decays were collected until they reached 3000 counts in the peak channel. A scattering solution, a silica gel suspension in H2O, was used to obtain the instrument response function (IRF). The histograms were analysed using a nonlinear least-squares deconvolution method via the software implemented with the instrument.
# [5] = UV-Vis absorption spectra in MeOH; assay type: physicochemical
# Procedure: (§3) The absorption spectra of (oxidopyridyl)porphyrins were recorded in HPLC grade MeOH on a Cary UV 60 (Agilent Technologies, Santa Clara, CA, USA), in a wavelength range of 300–700 nm. The fluorescence spectra in HPLC grade MeOH were recorded on a Cary Eclipse (Agilent Technologies) in a wavelength range of 500–800 nm after excitation at the Soret band wavelength (λ ~ 420 nm). The slits of the spectrometer were set to a bandpass of 5 nm for the excitation and 5 nm for the emission. To calculate the fluorescence quantum yields, the measurements were conducted on an FS5 Edinburgh Instruments spectrometer. Prior to taking the measurements, the solutions were purged with high-purity N2 for at least 15 min. The absorbance of the solutions was set to A < 0.1 at 405 nm and 550 nm, which settings were used for the excitation process. Emission was recorded from 550 to 800 nm, with slits set to the bandpass corresponding to 2 nm for the excitation, and 3 nm for the emission. Fluorescence quantum yield (ΦFL) was calculated in comparison to the tetraphenylporphyrin (TPP; ΦFL = 0.11 [23]) as a standard, according to Equation (S1) and following an equation previously described elsewhere.
# [6] = Fluorescence spectra and fluorescence quantum yield in MeOH; assay type: physicochemical
# Procedure: as §3
# [7] = Laser flash photolysis (LFP), triplet excited state properties; assay type: physicochemical; conditions: MeOH
# Procedure: Laser flash photolysis (LFP) was performed using an LP980 transient absorption spectrometer (Edinburgh Instruments) equipped with a continuous beam (or pulse mode) Xenon lamp passing through the sample. A nanosecond Nd:YAG laser (Quantel, Q-smart 450, 5 ns pulse duration, 10 Hz, excitation wavelength 355 nm) was then used to excite the sample perpendicular to the lamp beam. The laser beam energy was adjusted to below 5 mJ. The ground state absorbance of the porphyrins in MeOH was adjusted to 0.20–0.25 at 355 nm (the laser excitation wavelength) and the solutions were purged with high-purity N2 for at least 15 min prior to taking the measurements. The samples were prepared for kq determination in an air atmosphere that was N2-purged for 15 min and O2-purged for 15 min before the measurements were taken. The ground state absorption spectra of the samples were also recorded after purging the sample with N2 or O2, and after transient absorption (TAS) measurements were taken to track the differences in every step of the measurement process to ensure that no photoproducts were formed. All measurements were performed at 25 °C in 1 cm quartz cuvettes. Laser flash photolysis was used to measure the kinetics of triplet state depopulation (τT) and triplet-triplet absorption spectra, and to calculate the intersystem crossing quantum yield (ΦISC) and quenching rate constants of triplet excited states by molecular oxygen (kq). To calculate ΦISC, the first step was the calculation of the molar absorption coefficient of the triplet state using the singlet depletion method, completing the first step according to Equation (S2). The ΦISC values were estimated by using a comparative method with TPP (ΦISC = 0.87 in toluene) as the standard. The ΦISC was calculated according to Equation (S3). Triplet excited state lifetimes were determined by fitting the triplet decays to the equation for the mixed first- and second-order decay, as previously described, and the quenching rate constant of a triplet excited state by molecular oxygen was calculated using the Stern–Volmer equation (Equation (S4)).
# [8] = red light 643 nm 30 min, CoCl2-induced hypoxia
# [9] = red light 643 nm 30 min, normoxia
structure (smiles),measurement,setting,value
"CC(=O)Nc1ccc(-c2c3nc(c(-c4ccc[n+](C)c4)c4ccc([nH]4)c(-c4ccc[n+](C)c4)c4nc(c(-c5ccc[n+](C)c5)c5ccc2[nH]5)C=C4)C=C3)cc1.[Cl-].[Cl-].[Cl-] [TMPyP3-CH3, 5-(4-Acetamidophenyl)-10,15,20-Tris(N-Methylpyridinium-3-Yl)Porphyrin Trichloride]",ΦFL (fluorescence quantum yield),[1],0.072
same,ΦISC,[2],0.34
same,τT (lifetime of 3PS*),[2],0.77 ms
same,IC50,A375; read-out: IC50 A375 CoCl2,> 100 µM
same,IC50,A375; read-out: IC50 A375 No CoCl2,> 100 µM
same,IC50,MeWo; read-out: IC50 MeWo CoCl2,> 100 µM
same,IC50,MeWo; read-out: IC50 MeWo No CoCl2,> 100 µM
same,IC50,HDF; read-out: IC50 HDF CoCl2,> 100 µM
same,IC50,HDF; read-out: IC50 HDF No CoCl2,> 100 µM
"CC(=O)Nc1ccc(-c2c3nc(c(-c4ccc[n+]([O-])c4)c4ccc([nH]4)c(-c4ccc[n+]([O-])c4)c4nc(c(-c5ccc[n+]([O-])c5)c5ccc2[nH]5)C=C4)C=C3)cc1 [TOPyP3-CH3, 5-(4-Acetamidophenyl)-10,15,20-tris(1-oxido-3-pyridyl)porphyrin]",phototoxicity / reduction of proliferation at 1 µM,"[3]; 1 µM, irradiation 643 nm, normoxia or CoCl2-induced hypoxia",did not appear to reduce the proliferation
same,contribution of τ1 (% of the decay),[4],2%
same,contribution of τ2 (% of the decay),[4],98%
same,"τFL, longer decay time τ2",[4],8.62 ± 0.02 ns and 8.62 ns
same,"τFL, short decay time τ1",[4],0.82 ± 0.08 ns and 0.82 ns
same,ε Qx (0-0),[5],1900 M⁻¹ cm⁻¹
same,ε Qx (1-0),[5],5800 M⁻¹ cm⁻¹
same,ε Qy (0-0),[5],5200 M⁻¹ cm⁻¹
same,ε Qy (1-0),[5],18200 M⁻¹ cm⁻¹
same,ε Soret (B),[5],346900 M⁻¹ cm⁻¹
same,λabs Qx (0-0),[5],645 nm
same,λabs Qx (1-0),[5],588 nm
same,λabs Qy (0-0),[5],545 nm
same,λabs Qy (1-0),[5],510 nm
same,λabs Soret (B),[5],416 nm
same,ΦFL (fluorescence quantum yield),"[6]; N2-purged, TPP as reference",0.050 ± 0.002
same,"λFL Q(0,0)",[6]; excitation at Soret band,648 nm
same,"λFL Q(0,1)",[6]; excitation at Soret band,713 nm
same,τT (lifetime of 3PS*),[7],1.1 ms
same,τT (lifetime of the triplet excited state),"[7]; N2-purged, 25 °C",1100 ± 200 μs
same,kq (O2) (quenching rate constant of the triplet excited state by O2),[7]; Stern–Volmer,1.3e+09 M⁻¹ s⁻¹
same,ΦISC (quantum yield of intersystem crossing),"[7]; comparative method with TPP, estimated",0.66
same,εT-T (molar absorption coefficient of the triplet state),[7]; singlet depletion method,47 000 M^−1cm^−1
same,IC50,"A375; 6 h incubation, red light 643 nm 30 min, 3.6 J/cm^2, 100 μM CoCl2 at least 2 h before porphyrin, read-out: IC50 A375 CoCl2",> 100 µM
same,IC50,"A375; 6 h incubation, red light 643 nm 30 min, 3.6 J/cm^2, normoxia, read-out: IC50 A375 No CoCl2",> 100 µM
same,IC50,"MeWo; 6 h incubation, red light 643 nm 30 min, 3.6 J/cm^2, 100 μM CoCl2 at least 2 h before porphyrin, read-out: IC50 MeWo CoCl2",> 100 µM
same,IC50,"MeWo; 6 h incubation, red light 643 nm 30 min, 3.6 J/cm^2, normoxia, read-out: IC50 MeWo No CoCl2",> 100 µM
same,IC50,"HDF; 6 h incubation, red light 643 nm 30 min, 3.6 J/cm^2, 100 μM CoCl2 at least 2 h before porphyrin, read-out: IC50 HDF CoCl2",> 100 µM
same,IC50,"HDF; 6 h incubation, red light 643 nm 30 min, 3.6 J/cm^2, normoxia, read-out: IC50 HDF No CoCl2",> 100 µM
"CCCCCCCCCCCCCCCCCC(=O)Nc1ccc(-c2c3nc(c(-c4ccc[n+](C)c4)c4ccc([nH]4)c(-c4ccc[n+](C)c4)c4nc(c(-c5ccc[n+](C)c5)c5ccc2[nH]5)C=C4)C=C3)cc1.[Cl-].[Cl-].[Cl-] [TMPyP3-C17H35, 5-(4-Octadecanamidophenyl)-10,15,20-Tris(N-Methylpyridinium-3-Yl)Porphyrin Trichloride]",IC50,"[3]; Homo sapiens, light or radiation study, read-out: IC50 in all the tested cells",≤ 1 µM
same,ΦFL (fluorescence quantum yield),[1],0.105
same,ΦISC,[2],0.38
same,τT (lifetime of 3PS*),[2],0.74 ms
same,IC50,A375; read-out: IC50 A375 CoCl2,0.23 ± 0.07 µM
same,IC50,A375; read-out: IC50 A375 No CoCl2,0.15 ± 0.08 µM
same,SI (IC50 (HDF) / IC50 (melanoma cells)) A375 100 µM CoCl2,A375; [8],2.0
same,SI (IC50 (HDF) / IC50 (melanoma cells)) A375 No CoCl2,A375; [9],2.2
same,IC50,MeWo; read-out: IC50 MeWo CoCl2,0.47 ± 0.02 µM
same,IC50,MeWo; read-out: IC50 MeWo No CoCl2,0.33 ± 0.04 µM
same,SI (IC50 (HDF) / IC50 (melanoma cells)) MeWo 100 µM CoCl2,MeWo; [8],1.0
same,SI (IC50 (HDF) / IC50 (melanoma cells)) MeWo No CoCl2,MeWo; [9],1.0
same,IC50,HDF; read-out: IC50 HDF CoCl2,0.46 ± 0.14 µM
same,IC50,HDF; read-out: IC50 HDF No CoCl2,0.33 ± 0.03 µM
